pEC50: −log10 of the molar value.
Tests used:
IKZF2 (Helios) = biological target: T1, IKZF2 (Helios) (Homo sapiens, UniProt Q9UKS7); assay: IKZF2 reporter degradation assay (HEK 293T IKZF2-mNeonGreen reporter cell line); type: cell-based; conditions: HEK 293T IKZF2-mNeonGreen reporter, 24 hours incubation
T1 construct: Leu-Asp junction (codons ctcgac before the linker); mScarlet (behind P2A) (C, cleaved yes); expressed in transfected cells
Source text: (§1) Polycistronic plasmids were constructed for the mammalian expression of fluorescent reporter fusions of human transcription factors IKZF1 (Ikaros), IKZF2 (Helios), and IKZF3 (Aiolos). The respective protein sequences had their C-terminal end joined to a GGGGS linker repeated three times followed by mNeonGreen, P2A sequence, and mScarlet. The DNA sequences of the open reading frames are as follows:
(§2) IKZF1, IKZF2, and IKZF3 constructs were cloned into the UCOE Hygromycin expression vectors (Millipore Sigma). Reporter constructs were transfected using cationic lipid reagents into adherent HEK 293T cells and stable integrants were selected by treatment with 200 μg/mL hygromycin B. Clonal populations were obtained from the population of stable integrants either by limiting dilution or fluorescence activated cell sorting.
(§3) The clonal stable cell lines were maintained under constant 200 μg/mL hygromycin B selection while being passaged for use in the degradation assays. […] The fluorescence intensity of the IKZF1/2/3-mNeonGreen (FITC channel) and mScarlet (PE channel) reporters were routinely analyzed by flow cytometry to confirm consistent expression levels between experiments.
(§4) The IKZF1/IKZF2/IKZF3 degradation assays were carried out by harvesting the HEK 293T reporter cell lines and resuspending the cells in media formulated for reduced background fluorescence (FluoroBrite; Thermo Fisher). The respective cell lines were seeded at a density of 4000 cells/well into black-walled 384-well optical grade assay tissue culture plates. The cells were incubated overnight at 37° C. to allow for attachment to the assay plate. Dilutions of the compounds were prepared in DMSO from 10 mM compound stocks. The assay plates were treated with appropriate concentrations of the compounds by dispensing the DMSO dilutions in quadruplicate wells with an upper limit of 0.5% final DMSO.
(§5) After 24 hours incubation with the compounds, the assay plates were imaged on an ImageXpress Pico microscopy system (cells maintained at 37° C. during imaging) to obtain the fluorescent readouts. The assay plates were imaged in the FITC and Tetramethylrhodamine (TRITC) channels to obtain the mNeonGreen fluorescence intensity (reporter degradation data) and mScarlet fluorescence intensity (for cell segmentation). 293T-IKZF1 and 293T-IKZF3 reporter cell lines were imaged with exposures of 500 milliseconds (ms) for both FITC and TRITC channels, while the 293T-IKZF2 reporter cell line was imaged with exposures of 1000 ms for FITC and 1250 ms for TRITC. The resulting data was analyzed with Cell Reporter Xpress software using the 2-channel cell scoring analysis with a “percent positive” readout. The TRITC channel was selected for the “nuclei” segmentation with a threshold of 20 while the FITC channel was selected for the “Marker 1” segmentation and a threshold of 100 for the IKZF1 and IKZF3 reporter lines. […] The minimum segmentation width was set to 6 micrometers and the maximum segmentation width was set to 15 micrometers for all cell lines. The DC50 calculations were determined by regression to best fit four-parameter logistic curves using GraphPad Prism.

IKZF3 (Aiolos) = biological target: T2, IKZF3 (Aiolos) (Homo sapiens, UniProt Q9UKT9); assay: IKZF3 reporter degradation assay (HEK 293T IKZF3-mNeonGreen reporter cell line); type: cell-based; conditions: HEK 293T IKZF3-mNeonGreen reporter, 24 hours incubation
T2 construct: Leu-Asp junction (codons ctcgac before the linker); mScarlet (behind P2A) (C, cleaved yes); expressed in transfected cells
Source text: as §1, §2, §3, §4, §5

[1] = biological target: T3, human E3 ligase component cereblon (CRBN) (Homo sapiens, UniProt Q96SW2); assay: Cereblon (CRBN) target engagement, NanoBRET TE Intracellular E3 Ligase Assay in transfected HEK-293T cells; conditions: read-out: CRBN Binding EC50
T3 construct: host or cells: HEK293T
Experimental: HEK293T cells were harvested ca. 75% confluent with trypsin and plated (500,000 cells/well) in a 6-well tissue culture plate in 2 mL of Dulbecco's Modified Eagle Medium (DMEM)^+10% Fetal Bovine Serum (FBS) and incubated overnight at 37° C.
The NanoLuc-CRBN fusion vector (Nluc-CRBN; Promega) contains the coding region of human E3 ligase component cereblon (CRBN) fused to the C-terminus of the NanoLuc luciferase coding region. A mixture of 10 ng Nluc-CRBN and 990 ng DDB1 Expression Vector (Promega) was added to 125 μL Opti-Minimum Essential Medium (Opti-MEM™; Thermo Fisher) along with […] P3000 reagent (Thermo Fisher) in a 1.5 mL epppendorf tube. This solution was added to Lipofectamine 3000 transfection reagent (5 μL; Thermo Fisher) in Opti-MEM (125 μL), mixed well, and incubated for 15 minutes at room temperature. The transfection mixture was added dropwise to cells and incubated overnight at 37° C., 5% CO2. Following transfection, cells were washed once with PBS, and trypsin (250 μL) was added and incubated 30-45 see to dislodge cells. Complete media (2 mL) was added to resuspend cells to form a single cell suspension. Cells were centrifuged at 320×g for 5 min at room temperature, the supernatant was removed, and the cell pellet resuspended in Opti-MEM (3 mL; wash step repeated ×2). After final resuspension in 5 mL Opti-MEM, cells were counted and resuspended at 200,000 cells/mL in Opti-MEM.
Cereblon target engagement was monitored by Bioluminescence Resonance Energy Transfer (BRET) in transfected HEK-293T cells using the NanoBRET TE Intracellular E3 Ligase Assay (Promega). Briefly, 384-well plates (white opaque plates, Corning 3574, low binding surface) were seeded with transfected HEK-293T cells (38 μL/well). 2 μL of 10 μM CRBN tracer (diluted 1:5 in Tracer Dilution Buffer) was added to each well. Plates were centrifuged at 320×g for 1 min at room temperature. Test compounds were added in a 11-point dilution series (typically 10 μM to 100 pM) using a TECAN D300e Digital Dispenser. Plates were shaken for 2 minutes on a microplate shaker to mix compounds. Plates were centrifuged at 320×g for 1 min at room temperature, and subsequently incubated for 2 hours at 37° C.
After incubation, plates were allowed to cool to room temperature for 15 minutes. 20 μL of 3× Complete NanoBRET™ Nano-Glo® Substrate plus Inhibitor Solution (Promega, 1:166 Substrate and 1:500 dilution of Extracellular NanoLuc® Inhibitor diluted in Opti-MEM) were added to each well. Plates were incubated with shaking at room temperature for 3 minutes covered with foil. Plates were read on a CLARIOstar microplate reader (BMG LabTech), measuring at 450 nm (donor emission) and 610 nm (acceptor emission). The IC50 values were determined by regression to best fit four-parameter logistic curves using GraphPad Prism.

T2 sequence (Q96SW2 whole entry partner): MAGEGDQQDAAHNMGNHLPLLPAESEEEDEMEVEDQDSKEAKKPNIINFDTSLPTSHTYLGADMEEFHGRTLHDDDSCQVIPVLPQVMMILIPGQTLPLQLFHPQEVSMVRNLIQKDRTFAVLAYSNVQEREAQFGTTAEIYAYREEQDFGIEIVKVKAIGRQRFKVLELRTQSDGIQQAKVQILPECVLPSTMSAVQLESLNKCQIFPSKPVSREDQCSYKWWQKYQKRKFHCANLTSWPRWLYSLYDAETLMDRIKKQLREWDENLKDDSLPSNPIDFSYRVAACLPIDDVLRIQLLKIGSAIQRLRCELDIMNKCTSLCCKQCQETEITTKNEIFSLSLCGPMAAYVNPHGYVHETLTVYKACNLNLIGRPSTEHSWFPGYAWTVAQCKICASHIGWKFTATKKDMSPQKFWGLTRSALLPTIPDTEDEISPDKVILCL
T2 sequence (Q16531 whole entry partner): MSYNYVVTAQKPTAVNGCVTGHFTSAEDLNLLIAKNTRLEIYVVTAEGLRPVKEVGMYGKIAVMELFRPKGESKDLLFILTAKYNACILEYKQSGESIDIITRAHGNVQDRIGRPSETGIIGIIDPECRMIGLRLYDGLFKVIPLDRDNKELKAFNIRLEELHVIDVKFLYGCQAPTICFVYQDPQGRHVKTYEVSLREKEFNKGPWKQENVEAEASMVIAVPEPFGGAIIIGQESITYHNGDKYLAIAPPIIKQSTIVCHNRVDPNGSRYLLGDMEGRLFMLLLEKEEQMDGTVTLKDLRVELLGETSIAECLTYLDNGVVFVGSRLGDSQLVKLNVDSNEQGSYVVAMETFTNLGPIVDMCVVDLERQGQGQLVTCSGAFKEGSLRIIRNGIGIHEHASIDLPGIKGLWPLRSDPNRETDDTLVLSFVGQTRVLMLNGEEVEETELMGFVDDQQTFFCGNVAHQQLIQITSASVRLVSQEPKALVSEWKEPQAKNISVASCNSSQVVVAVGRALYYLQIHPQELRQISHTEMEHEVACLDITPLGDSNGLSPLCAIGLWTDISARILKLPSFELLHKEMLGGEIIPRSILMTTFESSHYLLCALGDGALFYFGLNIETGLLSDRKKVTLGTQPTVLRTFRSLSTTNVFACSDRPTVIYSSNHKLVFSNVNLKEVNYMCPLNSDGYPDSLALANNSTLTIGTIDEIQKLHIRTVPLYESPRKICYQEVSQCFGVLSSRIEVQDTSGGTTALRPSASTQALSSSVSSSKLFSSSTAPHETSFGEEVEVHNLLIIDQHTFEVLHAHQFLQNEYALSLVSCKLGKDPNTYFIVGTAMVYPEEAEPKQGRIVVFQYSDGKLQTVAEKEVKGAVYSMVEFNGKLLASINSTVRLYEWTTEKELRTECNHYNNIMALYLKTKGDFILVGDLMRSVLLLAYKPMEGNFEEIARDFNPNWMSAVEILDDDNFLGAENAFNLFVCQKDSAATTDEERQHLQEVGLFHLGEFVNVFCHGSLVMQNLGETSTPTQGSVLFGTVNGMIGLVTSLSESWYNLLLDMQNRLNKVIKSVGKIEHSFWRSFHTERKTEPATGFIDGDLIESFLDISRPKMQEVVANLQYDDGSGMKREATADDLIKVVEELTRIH
T2 sequence (Q9UKT9 whole entry): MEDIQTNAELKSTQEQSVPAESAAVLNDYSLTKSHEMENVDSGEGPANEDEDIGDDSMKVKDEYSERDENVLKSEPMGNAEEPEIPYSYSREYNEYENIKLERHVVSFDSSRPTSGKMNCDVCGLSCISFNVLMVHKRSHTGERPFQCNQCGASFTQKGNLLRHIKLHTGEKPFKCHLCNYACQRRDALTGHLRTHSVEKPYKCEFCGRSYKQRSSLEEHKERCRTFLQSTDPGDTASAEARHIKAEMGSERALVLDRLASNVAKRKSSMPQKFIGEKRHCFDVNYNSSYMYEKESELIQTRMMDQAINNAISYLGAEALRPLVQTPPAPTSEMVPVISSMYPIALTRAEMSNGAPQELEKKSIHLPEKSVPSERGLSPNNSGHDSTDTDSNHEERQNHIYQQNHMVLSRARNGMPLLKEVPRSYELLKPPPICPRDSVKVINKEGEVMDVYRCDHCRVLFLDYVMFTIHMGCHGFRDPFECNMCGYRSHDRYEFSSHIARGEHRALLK
T3 sequence (Q96SW2 whole entry): as the sequence (Q96SW2 whole entry partner) above
T3 sequence (Q16531 whole entry partner): as the sequence (Q16531 whole entry partner) above
T1 sequence (Q9UKS7 whole entry): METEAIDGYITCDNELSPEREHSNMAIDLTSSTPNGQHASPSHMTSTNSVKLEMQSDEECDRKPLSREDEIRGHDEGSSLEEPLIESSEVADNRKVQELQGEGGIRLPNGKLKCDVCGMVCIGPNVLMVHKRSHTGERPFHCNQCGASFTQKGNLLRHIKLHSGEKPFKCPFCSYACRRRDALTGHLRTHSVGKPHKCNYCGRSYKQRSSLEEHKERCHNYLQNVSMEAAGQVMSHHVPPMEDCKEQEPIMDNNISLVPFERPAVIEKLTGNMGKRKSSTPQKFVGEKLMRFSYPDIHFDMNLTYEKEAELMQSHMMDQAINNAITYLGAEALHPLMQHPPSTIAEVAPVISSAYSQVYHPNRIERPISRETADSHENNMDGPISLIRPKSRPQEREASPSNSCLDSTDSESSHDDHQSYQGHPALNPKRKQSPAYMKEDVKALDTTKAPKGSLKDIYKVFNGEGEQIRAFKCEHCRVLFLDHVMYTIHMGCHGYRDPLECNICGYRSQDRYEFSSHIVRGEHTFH
T1 sequence (Q96SW2 whole entry, further chain): as the sequence (Q96SW2 whole entry partner) above
T1 sequence (Q16531 whole entry partner): as the sequence (Q16531 whole entry partner) above

Structure (SMILES) | DC50 (IKZF2 (Helios)) [nM] | DC50 (IKZF3 (Aiolos)) [nM] | pEC50 [1]
O=C1CCC(N2Cc3cc(OC4CCCC4N4CC(c5ccc(C(F)(F)F)nc5)C4)ccc3C2=O)C(=O)N1 (stereo not shown) [Compound 141-B, 3-(1-oxo-5-((2-(3-(6-(trifluoromethyl)pyridin-3-yl)azetidin-1-yl)cyclopentyl)oxy)isoindolin-2-yl)piperidine-2,6-dione] | > 30000 | > 30000 | 7.43
O=C1CCC(N2Cc3cc(OC4CCCCC4N4CC(c5cncc(C(F)(F)F)c5)C4)ccc3C2=O)C(=O)N1 (stereo not shown) [Compound 178-B, 3-(1-oxo-5-((2-(3-(5-(trifluoromethyl)pyridin-3-yl)azetidin-1-yl)cyclohexyl)oxy)isoindolin-2-yl)piperidine-2,6-dione] | > 30000 | > 30000 | 7.41
O=C1CCC(N2Cc3cc(O[C@H]4CCCC[C@H]4N4CC(c5ccc(Cl)cn5)C4)ccc3C2=O)C(=O)N1 (mixture of isomers) [Compound 164-B, Rac-3-(5-(((cis)-2-(3-(5-chloropyridin-2-yl)azetidin-1-yl)cyclohexyl)oxy)-1-oxoisoindolin-2-yl)piperidine-2,6-dione] | > 30000 | > 30000 | 7.82
N#Cc1cc(C2CN([C@H]3CCCC[C@@H]3Oc3ccc4c(c3)CN(C3CCC(=O)NC3=O)C4=O)C2)ccn1 (mixture of isomers) [Compound 180-B, Rac-4-(1-((trans)-2-((2-(2,6-dioxopiperidin-3-yl)-1-oxoisoindolin-5-yl)oxy)cyclohexyl)azetidin-3-yl)picolinonitrile] | > 30000 | > 30000 | 7.39
O=C1CCC(N2Cc3cc(O[C@H]4CCCC[C@H]4N4CC(c5ccc(Cl)cn5)C4)ccc3C2=O)C(=O)N1 (single isomer, unassigned) [Compound 97-B] | > 30000 | – | 7.96
O=C1CCC(N2Cc3cc(O[C@H]4CCCC[C@H]4N4CC(c5ncc(C(F)(F)F)cn5)C4)ccc3C2=O)C(=O)N1 (single isomer, unassigned) [Compound 121-B] | > 30000 | – | 8.30
O=C1CCC(N2Cc3cc(O[C@@H]4CCCC[C@H]4N4CC(c5ccc(C(F)(F)F)nc5)C4)ccc3C2=O)C(=O)N1 (single isomer, unassigned) [Compound 124-B] | > 30000 | > 30000 | 7.54
O=C1CCC(N2Cc3cc(O[C@@H]4CCCC[C@@H]4N4CC(c5ccc(Cl)cn5)C4)ccc3C2=O)C(=O)N1 (single isomer, unassigned) [Compound 101-B] | > 30000 | – | 7.96
O=C1CCC(N2Cc3cc(O[C@H]4CCCC[C@H]4N4CC(c5ncc(C(F)(F)F)cn5)C4)ccc3C2=O)C(=O)N1 (single isomer, unassigned) [Compound 122-B] | > 30000 | – | 7.89
O=C1NC(=O)C2(N3Cc4cc(OC5CCCC5N5CC(c6ccncc6)C5)ccc4C3=O)CC1C2 (stereo not shown) [Compound 148-B, 1-(1-oxo-5-((2-(3-(pyridin-4-yl)azetidin-1-yl)cyclopentyl)oxy)isoindolin-2-yl)-3-azabicyclo[3.1.1]heptane-2,4-dione] | > 30000 | > 30000 | < 5.00
O=C1CCC(N2Cc3cc(O[C@H]4CCCC[C@@H]4N4CC(c5ncncc5Cl)C4)ccc3C2=O)C(=O)N1 (mixture of isomers) [Compound 140-B, Rac-3-(5-(((trans)-2-(3-(5-chloropyrimidin-4-yl)azetidin-1-yl)cyclohexyl)oxy)-1-oxoisoindolin-2-yl)piperidine-2,6-dione] | > 30000 | > 30000 | 7.47
O=C1CCC(N2Cc3cc(O[C@H]4CCCC[C@H]4N4CC(c5ccc6ccccc6n5)C4)ccc3C2=O)C(=O)N1 (stereo partly drawn) [Compound 88-B, 3-(1-oxo-5-(((1S,2R)-2-(3-(quinolin-2-yl)azetidin-1-yl)cyclohexyl)oxy)isoindolin-2-yl)piperidine-2,6-dione] | > 30000 | > 30000 | 8.00
O=C1CCC(N2Cc3cc(O[C@@H]4CCCC[C@H]4N4CC(c5ncc(C6CC6)cn5)C4)ccc3C2=O)C(=O)N1 (single isomer, unassigned) [Compound 133-B] | > 30000 | – | 8.00

Reference: US20250100996A1, “HETEROCYCLOALKYL AND HETEROARYL COMPOUNDS AND PHARMACEUTICAL COMPOSITIONS THAT MODULATE IKZF2” (Plexium, Inc., priority 2021, published 2025)
